Laboratory results as given in the supplement of paper PMC10307832.

How the values were obtained:
Test in all cases: relative viability (nuclei count vs DMSO), 5 days (fraction); higher = more cells survive
Tanzisertib + Pemetrexed = compound: O[C@H]1CC[C@H](Nc2ncc3nc(Nc4c(F)cc(F)cc4F)n([C@H]4CCOC4)c3n2)CC1 [Tanzisertib] + Nc1nc2[nH]cc(CCc3ccc(C(=O)N[C@@H](CCC(=O)O)C(=O)O)cc3)c2c(=O)[nH]1 [Pemetrexed] (partner 0.2 µM)
In short: (§1)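 Lung cancer cell lines were seeded in 1536-well plates and dosed by pin tool the next day, with either a single drug or a fixed anchor-drug dose combined with five library-drug doses (not always all listed) spaced in √10 steps. Five days later, one step fixed the cells and stained their nuclei (final 0.05% Triton X-100, 1% formaldehyde, 1 ug/ml Hoechst), and nuclei were counted on 4× images. Relative viability is the nuclei count in treated wells divided by the count in vehicle wells, and each value is the median of duplicate plates.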

Tanzisertib + Foretinib = compound: O[C@H]1CC[C@H](Nc2ncc3nc(Nc4c(F)cc(F)cc4F)n([C@H]4CCOC4)c3n2)CC1 [Tanzisertib] + COc1cc2c(Oc3ccc(NC(=O)C4(C(=O)Nc5ccc(F)cc5)CC4)cc3F)ccnc2cc1OCCCN1CCOCC1 [Foretinib] (partner 0.25 µM)
In short: as §1

Tanzisertib + Dasatinib = compound: O[C@H]1CC[C@H](Nc2ncc3nc(Nc4c(F)cc(F)cc4F)n([C@H]4CCOC4)c3n2)CC1 [Tanzisertib] + Cc1nc(Nc2ncc(C(=O)Nc3c(C)cccc3Cl)s2)cc(N2CCN(CCO)CC2)n1 [Dasatinib] (partner 0.075 µM)
In short: as §1

Tanzisertib + Navitoclax = compound: O[C@H]1CC[C@H](Nc2ncc3nc(Nc4c(F)cc(F)cc4F)n([C@H]4CCOC4)c3n2)CC1 [Tanzisertib] + CC1(C)CCC(c2ccc(Cl)cc2)=C(CN2CCN(c3ccc(C(=O)NS(=O)(=O)c4ccc(N[C@H](CCN5CCOCC5)CSc5ccccc5)c(S(=O)(=O)C(F)(F)F)c4)cc3)CC2)C1 [Navitoclax] (partner 0.5 µM)
In short: as §1

Row | Cell Line | relative viability (Tanzisertib + Pemetrexed; first compound 0.08 µM) | relative viability (Tanzisertib + Pemetrexed; first compound 0.253 µM) | relative viability (Tanzisertib + Pemetrexed; first compound 0.8 µM) | relative viability (Tanzisertib + Pemetrexed; first compound 2.53 µM) | relative viability (Tanzisertib + Pemetrexed; first compound 8 µM) | relative viability (Tanzisertib + Foretinib; first compound 0.08 µM) | relative viability (Tanzisertib + Foretinib; first compound 0.253 µM) | relative viability (Tanzisertib + Foretinib; first compound 0.8 µM) | relative viability (Tanzisertib + Foretinib; first compound 2.53 µM) | relative viability (Tanzisertib + Foretinib; first compound 8 µM) | relative viability (Tanzisertib + Dasatinib; first compound 0.08 µM) | relative viability (Tanzisertib + Dasatinib; first compound 0.253 µM) | relative viability (Tanzisertib + Dasatinib; first compound 0.8 µM) | relative viability (Tanzisertib + Dasatinib; first compound 2.53 µM) | relative viability (Tanzisertib + Dasatinib; first compound 8 µM) | relative viability (Tanzisertib + Navitoclax; first compound 0.08 µM) | relative viability (Tanzisertib + Navitoclax; first compound 0.253 µM) | relative viability (Tanzisertib + Navitoclax; first compound 0.8 µM) | relative viability (Tanzisertib + Navitoclax; first compound 2.53 µM) | relative viability (Tanzisertib + Navitoclax; first compound 8 µM)
1 | ChaGo-K-1 | 0.251 | 0.25 | 0.242 | 0.261 | 0.274 | 0.969 | 0.982 | 0.861 | 0.94 | 0.891 | 0.647 | 0.606 | 0.605 | 0.533 | 0.59 | 1.01 | 1.08 | 1.1 | 0.79 | 0.683
2 | EBC-1 |  |  |  |  |  | 0.102 | 0.093 | 0.104 | 0.117 | 0.109 |  |  |  |  |  | 0.433 | 0.419 | 0.451 | 0.404 | 0.318
3 | EKVX | 0.467 | 0.341 | 0.41 | 0.34 | 0.337 | 1.08 | 0.681 | 0.759 | 0.872 | 0.497 | 0.467 | 0.565 | 0.55 | 0.503 | 0.411 | 0.95 | 0.923 | 0.96 | 0.91 | 0.861
4 | EMC-BAC-2 | 0.429 | 0.427 | 0.432 | 0.451 | 0.469 | 1.04 | 0.937 | 0.988 | 0.969 | 0.966 | 0.315 | 0.321 | 0.328 | 0.351 | 0.299 | 1.23 | 1.16 | 1.18 | 1.12 | 1.07
5 | EPLC-272H | 0.296 | 0.306 | 0.388 | 0.475 | 0.289 | 0.737 | 0.692 | 0.714 | 0.65 | 0.666 | 0.416 | 0.373 | 0.367 | 0.359 | 0.333 | 1.33 | 1.14 | 0.971 | 1.17 | 1.04
6 | H3255 | 0.555 | 0.528 | 0.525 | 0.526 | 0.441 | 0.729 | 0.77 | 0.831 | 0.841 | 0.696 | 0.426 | 0.499 | 0.306 | 0.345 | 0.344 | 0.618 | 0.587 | 0.428 | 0.434 | 0.12
7 | HARA | 0.282 | 0.275 | 0.282 | 0.24 | 0.245 | 0.817 | 0.925 | 0.86 | 0.889 | 0.74 | 0.279 | 0.246 | 0.254 | 0.278 | 0.265 | 1.13 | 1.18 | 1.13 | 1.14 | 1.22
8 | HCC-15 | 0.228 | 0.208 | 0.199 | 0.207 | 0.21 | 1.13 | 1.05 | 1.11 | 1.02 | 1.08 | 0.764 | 0.646 | 0.637 | 0.642 | 0.591 | 0.754 | 0.699 | 0.702 | 0.671 | 0.694
9 | HCC-44 | 0.642 | 0.637 | 0.597 | 0.624 | 0.688 |  |  |  |  |  |  |  |  |  |  | 1.18 | 0.985 | 0.992 | 0.916 | 0.973
